{
  "source": "PubChem BioAssay AID1259407",
  "about": "(Chemical Carcinogenesis Research Information System (CCRIS), 2018)",
  "tested_on": "CCRIS mutagenicity, Ames/micronucleus/aberration tests",
  "assay": "CCRIS mutagenicity studies",
  "note": "Calls of active or inactive are those of the source. No rule for the calls is given here.",
  "data": [
    {"molecule": "CN(C)c1ccc(N=Nc2ccccc2)cc1", "values": [
      {"measurement": "mutagenic call", "setting": "End Point: IN VIVO CHROMOSOMAL ABERRATIONS, Test System: BONE MARROW CELLS, Species: MOUSE, Strain/Sex: SWISS ALBINO, Route: DIET", "value": "active; positive (% of aberrations increased with time)"},
      {"measurement": "mutagenic call", "setting": "End Point: IN VIVO MICRONUCLEUS, Test System: BONE MARROW CELL ERYTHROCYTES, Species: MOUSE, Strain/Sex: SWISS ALBINO, Route: DIET", "value": "active; positive (% micronuclei increased with time)"},
      {"measurement": "mutagenic call", "setting": "End Point: IN VIVO MICRONUCLEUS, Test System: HEPATOCYTES, Species: RAT, Strain/Sex: FISHER 344 OR SD/MALE, Route: ORAL OR IP", "value": "active; positive"},
      {"measurement": "mutagenic call", "setting": "End Point: IN VIVO MICRONUCLEUS, Test System: PERIPHERAL BLOOD RETICULOCYTES, Species: RAT, Strain/Sex: FISHER 344 OR SD/MALE, Route: ORAL OR IP", "value": "active; positive"},
      {"measurement": "mutagenic call", "setting": "End Point: In vivo micronucleus, Test System: Micronucleated hepatocytes, Species: Rat, Strain/Sex: F344/Male, Route: Oral", "value": "active; positive (highest dose only; p<0.05)"},
      {"measurement": "mutagenic call", "setting": "Test System: AMES SALMONELLA TYPHIMURIUM, Strain/Indicator: TA97, Metabolic Activation: HAMSTER, LIVER, S-9, AROCLOR 1254 (10%), Method: PREINCUBATION", "value": "inactive; negative"},
      {"measurement": "mutagenic call", "setting": "Test System: AMES SALMONELLA TYPHIMURIUM, Strain/Indicator: TA97, Metabolic Activation: NONE, Method: PREINCUBATION", "value": "inactive; negative"},
      {"measurement": "mutagenic call", "setting": "Test System: AMES SALMONELLA TYPHIMURIUM, Strain/Indicator: TA97, Metabolic Activation: RAT, LIVER, S-9, AROCLOR 1254 (10%), Method: PREINCUBATION", "value": "inactive; negative"},
      {"measurement": "mutagenic call", "setting": "Test System: AMES SALMONELLA TYPHIMURIUM, Strain/Indicator: TA98, Metabolic Activation: HAMSTER, LIVER, S-9, AROCLOR 1254 (10%), Method: PREINCUBATION", "value": "active; positive"},
      {"measurement": "mutagenic call", "setting": "Test System: AMES SALMONELLA TYPHIMURIUM, Strain/Indicator: TA98, Metabolic Activation: NONE, Method: PREINCUBATION", "value": "inactive; negative"},
      {"measurement": "mutagenic call", "setting": "Test System: AMES SALMONELLA TYPHIMURIUM, Strain/Indicator: TA98, Metabolic Activation: RAT, LIVER, S-9, AROCLOR 1254 (10%), Method: PREINCUBATION", "value": "inactive; negative"},
      {"measurement": "mutagenic call", "setting": "Test System: AMES SALMONELLA TYPHIMURIUM, Strain/Indicator: TA98, Metabolic Activation: RAT, LIVER, S-9, AROCLOR 1254, Method: STANDARD PLATE", "value": "active; positive"},
      {"measurement": "mutagenic call", "setting": "Test System: AMES SALMONELLA TYPHIMURIUM, Strain/Indicator: TA98, Metabolic Activation: RAT, LIVER, S-9, AROCLOR, Method: PREINCUBATION", "value": "active; positive"},
      {"measurement": "mutagenic call", "setting": "Test System: AMES SALMONELLA TYPHIMURIUM, Strain/Indicator: TA98, Metabolic Activation: RAT, LIVER, S-9, AROCLOR, Method: STANDARD PLATE", "value": "active; positive"},
      {"measurement": "mutagenic call", "setting": "Test System: AMES SALMONELLA TYPHIMURIUM, Strain/Indicator: TA98, Metabolic Activation: RAT, LIVER, S-9, KC500 OR PHENOBARBITAL, Method: LIQUID SUSPENSION", "value": "active; positive"},
      {"measurement": "mutagenic call", "setting": "Test System: AMES SALMONELLA TYPHIMURIUM, Strain/Indicator: TA100, Metabolic Activation: HAMSTER, LIVER, S-9, AROCLOR 1254 (5%), Method: PREINCUBATION", "value": "inactive; negative"},
      {"measurement": "mutagenic call", "setting": "Test System: AMES SALMONELLA TYPHIMURIUM, Strain/Indicator: TA100, Metabolic Activation: HAMSTER, LIVER, S-9, AROCLOR 1254 (10%), Method: PREINCUBATION", "value": "inactive; negative"},
      {"measurement": "mutagenic call", "setting": "Test System: AMES SALMONELLA TYPHIMURIUM, Strain/Indicator: TA100, Metabolic Activation: HAMSTER, LIVER, S-9, AROCLOR 1254 (30%), Method: PREINCUBATION", "value": "active; positive"},
      {"measurement": "mutagenic call", "setting": "Test System: AMES SALMONELLA TYPHIMURIUM, Strain/Indicator: TA100, Metabolic Activation: NONE, Method: PREINCUBATION", "value": "inactive; negative"},
      {"measurement": "mutagenic call", "setting": "Test System: AMES SALMONELLA TYPHIMURIUM, Strain/Indicator: TA100, Metabolic Activation: RAT, LIVER, S-9, AROCLOR 1254 (5 OR 30%), Method: PREINCUBATION", "value": "inactive; negative"},
      {"measurement": "mutagenic call", "setting": "Test System: AMES SALMONELLA TYPHIMURIUM, Strain/Indicator: TA100, Metabolic Activation: RAT, LIVER, S-9, AROCLOR 1254, Method: STANDARD PLATE", "value": "active; positive"},
      {"measurement": "mutagenic call", "setting": "Test System: AMES SALMONELLA TYPHIMURIUM, Strain/Indicator: TA100, Metabolic Activation: RAT, LIVER, S-9, KC500 OR PHENOBARBITAL, Method: LIQUID SUSPENSION", "value": "active; positive"},
      {"measurement": "mutagenic call", "setting": "Test System: AMES SALMONELLA TYPHIMURIUM, Strain/Indicator: TA1535, Metabolic Activation: HAMSTER, LIVER, S-9, AROCLOR 1254 (10%), Method: PREINCUBATION", "value": "inactive; negative"},
      {"measurement": "mutagenic call", "setting": "Test System: AMES SALMONELLA TYPHIMURIUM, Strain/Indicator: TA1535, Metabolic Activation: NONE, Method: PREINCUBATION", "value": "inactive; negative"},
      {"measurement": "mutagenic call", "setting": "Test System: AMES SALMONELLA TYPHIMURIUM, Strain/Indicator: TA1535, Metabolic Activation: RAT, LIVER, S-9, AROCLOR 1254 (10%), Method: PREINCUBATION", "value": "inactive; negative"},
      {"measurement": "mutagenic call", "setting": "Test System: CHINESE HAMSTER V-79, Strain/Indicator: V-79/6-THIOGUANINE, Metabolic Activation: NONE, Method: SUSPENSION/PLATE", "value": "inactive; negative"},
      {"measurement": "mutagenic call", "setting": "Test System: CHINESE HAMSTER V-79, Strain/Indicator: V-79/6-THIOGUANINE, Metabolic Activation: RAT, LIVER, S-9, PHENOBARBITAL AND BETA-NAPHTHOFLAVONE, Method: SUSPENSION/PLATE", "value": "inactive; negative"},
      {"measurement": "mutagenic call", "setting": "Test System: E. COLI, Strain/Indicator: WP2 UVRA, Metabolic Activation: HAMSTER, LIVER, S-9, AROCLOR 1254, Method: STANDARD PLATE", "value": "inactive; negative"},
      {"measurement": "mutagenic call", "setting": "Test System: E. COLI, Strain/Indicator: WP2 UVRA, Metabolic Activation: HAMSTER, LIVER, S-9, Method: STANDARD PLATE", "value": "inactive; negative"},
      {"measurement": "mutagenic call", "setting": "Test System: E. COLI, Strain/Indicator: WP2 UVRA, Metabolic Activation: MOUSE, LIVER, S-9, AROCLOR 1254, Method: STANDARD PLATE", "value": "inactive; negative"},
      {"measurement": "mutagenic call", "setting": "Test System: E. COLI, Strain/Indicator: WP2 UVRA, Metabolic Activation: MOUSE, LIVER, S-9, Method: STANDARD PLATE", "value": "inactive; negative"},
      {"measurement": "mutagenic call", "setting": "Test System: E. COLI, Strain/Indicator: WP2 UVRA, Metabolic Activation: NONE, Method: STANDARD PLATE", "value": "inactive; negative"},
      {"measurement": "mutagenic call", "setting": "Test System: E. COLI, Strain/Indicator: WP2 UVRA, Metabolic Activation: RAT, LIVER, S-9, AROCLOR 1254, Method: STANDARD PLATE", "value": "inactive; negative"},
      {"measurement": "mutagenic call", "setting": "Test System: E. COLI, Strain/Indicator: WP2 UVRA, Metabolic Activation: RAT, LIVER, S-9, Method: STANDARD PLATE", "value": "inactive; negative"},
      {"measurement": "mutagenic call", "setting": "Test System: MOUSE LYMPHOMA, Strain/Indicator: L5178Y (TK+/TK-), Metabolic Activation: NONE, Method: SUSPENSION/PLATE", "value": "inactive; negative"},
      {"measurement": "mutagenic call", "setting": "Test System: MOUSE LYMPHOMA, Strain/Indicator: L5178Y (TK+/TK-), Metabolic Activation: RAT, LIVER, S-9, AROCLOR 1254, Method: SUSPENSION/PLATE", "value": "active; positive"}
    ]}
  ]
}
